target: T1, human PAH with the R408W mutation (Homo sapiens, UniProt P00439, R408W); assay: Cell Based Phenylalanine Flux Assay; settings: A375 cells expressing human R408W PAH; 24 hrs compound incubation; 13C-Tyrosine by LC-MS; average where tested multiple times; read-out: AC50;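 further: Ten-point dose curve from 2-fold serial dilutions, run in duplicate at 0.5% DMSO final, tracer step used 20 µM sepiapterin and 800 µM labeled phenylalanine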
T1 construct: expressed in transfected cells
T1 sequence (P00439 1-452 R408W): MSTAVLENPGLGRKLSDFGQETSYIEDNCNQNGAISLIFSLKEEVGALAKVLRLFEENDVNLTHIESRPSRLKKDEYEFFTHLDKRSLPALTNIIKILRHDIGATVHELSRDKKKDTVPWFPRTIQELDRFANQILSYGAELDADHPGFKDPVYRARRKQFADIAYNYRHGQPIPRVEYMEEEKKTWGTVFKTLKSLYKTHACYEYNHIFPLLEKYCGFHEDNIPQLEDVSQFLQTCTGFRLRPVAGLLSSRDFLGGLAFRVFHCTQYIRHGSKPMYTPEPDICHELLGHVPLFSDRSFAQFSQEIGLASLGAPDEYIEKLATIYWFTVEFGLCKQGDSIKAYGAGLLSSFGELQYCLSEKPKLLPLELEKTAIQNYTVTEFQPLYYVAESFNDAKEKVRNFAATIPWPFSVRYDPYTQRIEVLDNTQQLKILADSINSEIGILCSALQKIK

First: Cn1ncnc1C(=O)N1CCc2[nH]cnc2[C@H]1c1cc2c(Cl)cccn2n1 [Example 1050, (S)-(4-(4-chloropyrazolo [1,5-a]pyridin-2-yl)-6,7-dihydro-1H-imidazo[4,5-c]pyridin-5(4H)-yl)(1-methyl-1H-1,2,4-triazol-5-yl)methanone]
Second: Cc1nc(C(=O)N2CCc3[nH]cnc3[C@H]2c2cc3c(Cl)cccn3n2)n(C)n1 [Example 1074, (S)-(4-(4-chloropyrazolo [1,5-a]pyridin-2-yl)-6,7-dihydro-1H-imidazo[4,5-c]pyridin-5(4H)-yl)(1,3-dimethyl-1H-1,2,4-triazol-5-yl)methanone]
The AC50 of the first is lower: < 0.5 µM for the first, 0.5 to 1 µM for the second.

First: Cc1cccn2nc([C@H]3c4nc[nH]c4CCN3C(=O)c3nc(C4CC4)nn3C)cc12 [Example 1059]
Second: Cn1nc(C2CC2)nc1C(=O)N1CCc2[nH]cnc2[C@@H]1c1cc2c(Cl)cccn2n1 [Example 1073, (R)-(4-(4-chloropyrazolo [1,5-a]pyridin-2-yl)-6,7-dihydro-1H-imidazo[4,5-c]pyridin-5(4H)-yl)(3-cyclopropyl-1-methyl-1H-1,2,4-triazol-5-yl)methanone]
The AC50 of the first is higher: > 5 µM for the first, 1 to 5 µM for the second.

First: Cn1nc(C(F)(F)F)nc1C(=O)N1CCc2[nH]cnc2[C@H]1c1cc2c(C(F)(F)F)cccn2n1 [Example 1062, (S)-(1-methyl-3-(trifluoromethyl)-1H-1,2,4-triazol-5-yl)(4-(4-(trifluoromethyl)pyrazolo[1,5-a]pyridin-2-yl)-6,7-dihydro-1H-imidazo [4,5-c]pyridin-5(4H)-yl)methanone]
Second: Cn1nc(C(F)F)nc1C(=O)N1CCc2[nH]cnc2[C@@H]1c1cc2ccc(C(F)(F)F)cn2n1 [Example 1127, (R)-(3-(difluoromethyl)-1-methyl-1H-1,2,4-triazol-5-yl)(4-(6-(trifluoromethyl)pyrazolo[1,5-a]pyridin-2-yl)-6,7-dihydro-1H-imidazo [4,5-c]pyridin-5(4H)-yl)methanone]
The AC50 of the first is lower: < 0.5 µM for the first, 1 to 5 µM for the second.

`O=C(c1ccnn1C(F)F)N1CCc2[nH]cnc2[C@@H]1c1cc2cccc(Cl)n2n1` [Example 1065, (R)-(4-(7-chloropyrazolo [1,5-a]pyridin-2-yl)-6,7-dihydro-1H-imidazo[4,5-c]pyridin-5(4H)-yl)(1-(difluoromethyl)-1H-pyrazol-5-yl)methanone] and `O=C(c1ccnn1C(F)F)N1CCc2[nH]cnc2[C@@H]1c1cc2cc(C(F)(F)F)ccn2n1` [Example 1133, (R)-(1-(difluoromethyl)-1H-pyrazol-5-yl)(4-(5-(trifluoromethyl)pyrazolo [1,5-a]pyridin-2-yl)-6,7-dihydro-1H-imidazo[4,5-c]pyridin-5(4H)-yl)methanone] fall in the same range of AC50: 1 to 5 µM for the first, 1 to 5 µM for the second.

First: Cn1cc(-c2nnc(C(=O)N3CCc4[nH]cnc4[C@@H]3c3cc4cccc(Cl)n4n3)o2)cn1 [Example 1067, (R)-(4-(7-chloropyrazolo [1,5-a]pyridin-2-yl)-6,7-dihydro-1H-imidazo[4,5-c]pyridin-5(4H)-yl)(5-(1-methyl-1H-pyrazol-4-yl)-1,3,4-oxadiazol-2-yl)methanone]
Second: O=C(c1nnc(C2CC2)o1)N1CCc2[nH]cnc2[C@@H]1c1cc2cccc(Cl)n2n1 [Example 1136, (R)-(4-(7-chloropyrazolo [1,5-a]pyridin-2-yl)-6,7-dihydro-1H-imidazo[4,5-c]pyridin-5(4H)-yl)(5-cyclopropyl-1,3,4-oxadiazol-2-yl)methanone]
The AC50 of the first is higher: > 5 µM for the first, 1 to 5 µM for the second.

`O=C(c1ocnc1C(F)F)N1CCc2[nH]cnc2[C@H]1c1cc2ccc(C(F)(F)F)cn2n1` [Example 1104, (S)-(4-(difluoromethyl)oxazol-5-yl)(4-(6-(trifluoromethyl)pyrazolo [1,5-a]pyridin-2-yl)-6,7-dihydro-1H-imidazo[4,5-c]pyridin-5(4H)-yl)methanone] and `CC(C)(O)c1nc(C(F)F)c(C(=O)N2CCc3[nH]cnc3[C@H]2c2cc3ccc(C(F)(F)F)cn3n2)o1` [Example 1116, (S)-(4-(difluoromethyl)-2-(2-hydroxypropan-2-yl)oxazol-5-yl)(4-(6-(trifluoromethyl)pyrazolo[1,5-a]pyridin-2-yl)-6,7-dihydro-1H-imidazo [4,5-c]pyridin-5(4H)-yl)methanone] cannot be ordered by AC50: < 0.5 µM for the first, < 0.5 µM for the second.

First: CC(C)(F)c1nnc(C(=O)N2CCc3[nH]cnc3[C@H]2c2cc3c(Cl)cccn3n2)o1 [Example 1109, (S)-(4-(4-chloropyrazolo [1,5-a]pyridin-2-yl)-6,7-dihydro-1H-imidazo[4,5-c]pyridin-5(4H)-yl)(5-(2-fluoropropan-2-yl)-1,3,4-oxadiazol-2-yl)methanone]
Second: Cc1ccc2cc([C@H]3c4nc[nH]c4CCN3C(=O)c3nnc(C(C)(C)F)o3)nn2c1 [Example 1170, (R)-(5-(2-fluoropropan-2-yl)-1,3,4-oxadiazol-2-yl)(4-(6-methylpyrazolo[1,5-a]pyridin-2-yl)-6,7-dihydro-1H-imidazo[4,5-c]pyridin-5(4H)-yl)methanone]
The AC50 of the first is lower: < 0.5 µM for the first, > 5 µM for the second.

First: Cc1ccc2cc([C@@H]3c4nc[nH]c4CCN3C(=O)c3nnc(C(C)(C)C)o3)nn2c1 [Example 1110, (S)-(5-(tert-butyl)-1,3,4-oxadiazol-2-yl)(4-(6-methylpyrazolo[1,5-a]pyridin-2-yl)-6,7-dihydro-1H-imidazo[4,5-c]pyridin-5(4H)-yl)methanone]
Second: CC(C)(C)c1nnc(C(=O)N2CCc3[nH]cnc3[C@@H]2c2cc3ccc(F)cn3n2)o1 [Example 1125, (R)-(5-(tert-butyl)-1,3,4-oxadiazol-2-yl)(4-(6-fluoropyrazolo[1,5-a]pyridin-2-yl)-6,7-dihydro-1H-imidazo[4,5-c]pyridin-5(4H)-yl)methanone]
The AC50 of the first is lower: 0.5 to 1 µM for the first, 1 to 5 µM for the second.

First: CC(C)(O)c1nc(C(F)F)c(C(=O)N2CCc3[nH]cnc3[C@@H]2c2cc3ccc(C(F)(F)F)cn3n2)o1 [Example 1117, (R)-(4-(difluoromethyl)-2-(2-hydroxypropan-2-yl)oxazol-5-yl)(4-(6-(trifluoromethyl)pyrazolo[1,5-a]pyridin-2-yl)-6,7-dihydro-1H-imidazo[4,5-c]pyridin-5(4H)-yl)methanone]
Second: O=C(c1ccnn1C(F)F)N1CCc2[nH]cnc2[C@@H]1c1cc2ccc(C(F)(F)F)cn2n1 [Example 1139, (R)-(1-(difluoromethyl)-1H-pyrazol-5-yl)(4-(6-(trifluoromethyl)pyrazolo [1,5-a]pyridin-2-yl)-6,7-dihydro-1H-imidazo[4,5-c]pyridin-5(4H)-yl)methanone]
The AC50 of the first is higher: > 5 µM for the first, 1 to 5 µM for the second.

First: O=C(c1nnc(-c2ccn(C(F)F)n2)o1)N1CCc2[nH]cnc2[C@H]1c1cc2c(Cl)cccn2n1 [Example 1118, (S)-(4-(4-chloropyrazolo [1,5-a]pyridin-2-yl)-6,7-dihydro-1H-imidazo[4,5-c]pyridin-5(4H)-yl)(5-(1-(difluoromethyl)-1H-pyrazol-3-yl)-1,3,4-oxadiazol-2-yl)methanone]
Second: O=C(c1nnc(C2CC2)o1)N1CCc2[nH]cnc2[C@H]1c1cc2cccc(Cl)n2n1 [Example 1137]
The AC50 of the first is lower: < 0.5 µM for the first, 0.5 to 1 µM for the second.

`Cc1cccc2cc([C@@H]3c4nc[nH]c4CCN3C(=O)c3oc([C@@H](C)O)nc3C(F)F)nn12` [Example 1164, (4-(difluoromethyl)-2-((R)-1-hydroxyethyl)oxazol-5-yl)((S)-4-(7-methylpyrazolo [1,5-a]pyridin-2-yl)-6,7-dihydro-1H-imidazo[4,5-c]pyridin-5(4H)-yl)methanone] was tested, and the AC50 was < 0.5 µM.

Reference: patent US12673961B2 (Agios Pharmaceuticals, Inc., priority 2022, dated 2026)
